From patent publication US12534493B2, “Bridged nucleoside and nucleotide” (Liid Pharmaceuticals, Inc., priority 2020, dated 2026)

Tests used:
Assay type in all cases: binding
[1] = system: double-stranded hairpin DNA: 5′-d(GGCAGAAGAAAAAGAGACGC)-C18 spacer-d(GCGTCTCTTTTTCTTCTGCC)-3′ (SEQ ID NO: 23); assay: Melting temperature (Tm) measurement, triple strand-forming ability, with double-stranded hairpin DNA; settings: triplex with double-stranded hairpin DNA; for ΔTm/mod.: change per modification vs natural oligonucleotide; for Tm: footnote: 10 mM sodium phosphate buffer (pH 7.0), 200 mM NaCl, 5 mM MgCl2
Method: […] The sample solution was cooled to 15° C., and the measurement was started. The temperature was raised to 90° C. at a rate of 0.5° C. per minute, and the absorbance at 260 nm was plotted at intervals of 0.5° C. All Tm values were calculated by the midline method and the average of three independent measurement results was taken.

[2] = system: single-stranded RNA: 5′-r(ACGAGAACAUCC)-3′ (SEQ ID NO: 11); assay: Melting temperature (Tm) measurement, double strand-forming ability, with single-stranded RNA; settings: duplex with single-stranded RNA SEQ ID NO: 11; for Tm: 10 mM phosphate buffer (pH7.0), 200 mM NaCl, 2.5 μM each oligonucleotide; for ΔTm/mod.: change per modification vs natural oligonucleotide
Method: (§1) A sample solution ([…]) with final concentrations of 10 mM phosphate buffer (pH7.0), 200 mM sodium chloride, and 2.5 μM each oligonucleotide was immersed in boiling water and slowly cooled to room temperature. The sample solution was cooled to 20° C., and the measurement was started. The temperature was raised to 90° C. at a rate of 0.5° C. per minute, and the absorbance at 260 nm was plotted at intervals of 0.5° C. All Tm values were calculated by the midline method and the average of three independent measurement results was taken.
(§2) conditions: 10 mM sodium phosphate buffer (pH7.0) containing 200 mM NaCl, […] of each strand

[3] = system: single-stranded DNA: 5′-d(ACGAGAACATCC)-3′ (SEQ ID NO: 12); assay: Melting temperature (Tm) measurement, double strand-forming ability, with single-stranded DNA; settings: duplex with single-stranded DNA SEQ ID NO: 12; for Tm: 10 mM phosphate buffer (pH7.0), 200 mM NaCl, 2.5 μM each oligonucleotide; for ΔTm/mod.: change per modification vs natural oligonucleotide
Method: as §1, §2

| Substance | ΔTm/mod. [1] | Tm [1] [°C] | Tm [2] [°C] | ΔTm/mod. [2] | Tm [3] [°C] | ΔTm/mod. [3] |
| --- | --- | --- | --- | --- | --- | --- |
| 5′ -TCTTCTZZZTCTCT-3′: modified oligonucleotide with three consecutive Z modifications (DNA TCTTCTTTTTCTCT; three Z modified nucleotides; (2)..(2) 2′-Deoxy-5-methylcytidine; (5)..(5) 2′-Deoxy-5-methylcytidine; misc_difference (7)..(7) ENA; misc_difference (8)..(8) ENA; misc_difference (9)..(9) ENA; (11)..(11) 2′-Deoxy-5-methylcytidine; (13)..(13) 2′-Deoxy-5-methylcytidine) | +5.7 °C | 48 |  |  |  |  |
| 5′ -TCTTCYTYTYCTCT-3′: modified oligonucleotide with three separated Y modifications (DNA TCTTCTTTTTCTCT; three Y modified nucleotides; (2)..(2) 2′-Deoxy-5-methylcytidine; (5)..(5) 2′-Deoxy-5-methylcytidine; misc_difference (6)..(6) LNA; misc_difference (8)..(8) LNA; misc_difference (10)..(10) LNA; (11)..(11) 2′-Deoxy-5-methylcytidine; (13)..(13) 2′-Deoxy-5-methylcytidine) | +6.7 °C | 51 |  |  |  |  |
| 5′ -TCTTCTTTTTCTCT-3′: unmodified triplex-forming oligonucleotide; C shows 2′-deoxy-5-methylcytidine (DNA, all C 5-methyl, backbone not given here; triplex-forming oligonucleotide) |  | 31 |  |  |  |  |
| 5′-GGATGZZCTCGT-3′: modified oligonucleotide with two consecutive Z modifications (DNA GGATGTTCTCGT; two Z modified nucleotides; misc_difference (6)..(6) ENA; misc_difference (7)..(7) ENA) |  |  | 64 | +6.0 °C | 57 | +3.0 °C |
| 5′-GGAZGZTCTCGT-3′: modified oligonucleotide with two separated Z modifications (DNA GGATGTTCTCGT; two Z modified nucleotides; misc_difference (4)..(4) ENA; misc_difference (6)..(6) ENA) |  |  | 65 | +6.5 °C | 57 | +3.0 °C |
| 5′-GGATGYYCTCGT-3′: modified oligonucleotide with two consecutive Y modifications (DNA GGATGTTCTCGT; two Y modified nucleotides; misc_difference (6)..(6) LNA; misc_difference (7)..(7) LNA) |  |  | 64 | +6.0 °C | 57 | +3.0 °C |
| 5′-GGATGXXCTCGT-3′: modified oligonucleotide with two consecutive X modifications (DNA GGATGTTCTCGT; DNA oligonucleotide with modified nucleotide X, X not given here, further chemistry not given here) |  |  | 66 | +7.0 °C | 58 | +3.5 °C |
| 5′-GGAXGXTCTCGT-3′: modified oligonucleotide with two separated X modifications (DNA GGATGTTCTCGT; DNA oligonucleotide with modified nucleotide X, X not given here, further chemistry not given here) |  |  | 66 | +7.0 °C | 58 | +3.5 °C |
| 5′-GGAYGYTCTCGT-3′: modified oligonucleotide with two separated Y modifications (DNA GGATGTTCTCGT; two Y modified nucleotides; misc_difference (4)..(4) LNA; misc_difference (6)..(6) LNA) |  |  | 65 | +6.5 °C | 58 | +3.5 °C |
